Measured values as given in patent publication US20240000767A1, “COMBINATION OF AN ALPHA2-ADRENOCEPTOR SUBTYPE C (ALPHA-2C) ANTAGONIST WITH A TASK1/3 CHANNEL BLOCKER FOR THE TREATMENT OF SLEEP APNEA” (Bayer Aktiengesellschaft, priority 2020, published 2024).

target: human ADRA2C receptor (Homo sapiens (Human), UniProt P18825); assay: In vitro activity assay to determine the inhibition of recombinant ADRA2C (CHO-K1 cells, aequorin bioluminescence); format: cell-based; details: inhibition of noradrenaline-induced bioluminescence signal; some mean values from multiple determinations; read-out: ARα2C IC50
Sequence (P18825 whole entry): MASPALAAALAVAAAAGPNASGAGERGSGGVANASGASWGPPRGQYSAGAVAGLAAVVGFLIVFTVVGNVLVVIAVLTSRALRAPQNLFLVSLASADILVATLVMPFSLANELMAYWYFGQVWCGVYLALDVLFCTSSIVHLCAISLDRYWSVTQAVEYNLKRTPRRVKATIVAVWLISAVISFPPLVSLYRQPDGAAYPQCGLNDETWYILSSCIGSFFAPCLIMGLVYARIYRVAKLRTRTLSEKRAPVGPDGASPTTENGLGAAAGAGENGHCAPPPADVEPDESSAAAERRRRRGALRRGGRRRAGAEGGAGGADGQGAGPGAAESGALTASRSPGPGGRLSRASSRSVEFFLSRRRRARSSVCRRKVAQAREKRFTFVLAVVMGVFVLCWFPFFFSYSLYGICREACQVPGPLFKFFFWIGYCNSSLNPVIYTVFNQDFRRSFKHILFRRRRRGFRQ
Protocol: B-2. In Vitro Activity Assay to Determine the Inhibition of Recombinant ADRA2C
The human ADRA2C receptor belongs to the G protein(guanine-dependent protein)-coupled receptors, the main function of which is the transduction of signals into the interior of the cell.
The investigations of the inhibition of the recombinant human ADRA2C receptors were carried out with stabily transfected CHO-K1 cells coexpressing the Gaq protein and the calcium-sensitive photoprotein aequorin. In this recombinant system, binding of the agonists noradrenaline to the ADRA2C receptor leads, after activation of a signal cascade, to calcium release from intracellular stores, which is detected by the intracellular calcium sensor aequorin as a bioluminescent signal. The method is described in detail in the reference below. [Wunder F., Kalthof B., Muller T., Hueser J. Functional Cell-Based Assays in Microliter Volumes for Ultra-High Throughput Screening. Combinatorial Chemistry & High Throughput Screening, Volume 11, Number 7, 2008, pp. 495-504(10). doi.org/10.2174/138620708785204054]
The activity of the test substances was determined via their ability to inhibit the agonist-induced increase of the bioluminescence signal. The concentration which can block half of this signal increase is referred to as IC50. The IC50 value is calculated using the 4 parameter logistic function (Hill function):
Top=upper threshold, Bottom=lower threshold, Slope=slope, IC50=turning point

IC50 | SMILES
140 nM | C[C@@H]1CCCN(C2CCN(c3nc(C(F)(F)F)c(C(=O)NCc4ncc(F)cc4F)s3)CC2)C1 [Example 11, N-[(3,5-difluoropyridin-2-yl)methyl]-2-[(3R)-3-methyl[1,4′-bipiperidin]-1′-yl]-4-(trifluoromethyl)-1,3-thiazole-5-carboxamide]
107 nM | CCc1sc(N2CCC(N3CCC[C@@H](C)C3)CC2)nc1C(=O)NCc1ncc(F)cc1F [Example 12, N-[(3,5-difluoropyridin-2-yl)methyl]-5-ethyl-2-[(3R)-3-methyl[1,4′-bipiperidin]-1′-yl]-1,3-thiazole-4-carboxamide]
209 nM | C[C@@H]1CCCN(C2CCN(c3nc(C(=O)NCc4ncc(F)cc4F)co3)CC2)C1 [Example 13, N-[(3,5-difluoropyridin-2-yl)methyl]-2-[(3R)-3-methyl[1,4′-bipiperidin]-1′-yl]-1,3-oxazole-4-carboxamide]
211 nM | Cc1oc(N2CCC(N3CCC[C@@H](C)C3)CC2)nc1C(=O)NCc1ncc(F)cc1F [Example 14, N-[(3,5-difluoropyridin-2-yl)methyl]-5-methyl-2-[(3R)-3-methyl[1,4′-bipiperidin]-1′-yl]-1,3-oxazole-4-carboxamide]
1850 nM | CO[C@@H]1CCCN(C2CCN(c3ncc(C(=O)NCc4ncc(F)cc4F)s3)CC2)C1 [Example 15, N-[(3,5-difluoropyridin-2-yl)methyl]-2-[(3R)-3-methoxy[1,4′-bipiperidin]-1′-yl]-1,3-thiazole-5-carboxamide]
690 nM | C[C@@H]1CCCN(C2CCN(c3ncc(C(=O)NCc4cccc(C(F)(F)F)c4)s3)CC2)C1 [Example 19, 2-[(3R)-3-Methyl[1,4′-bipiperidin]-1′-yl]-N-[3-(trifluoromethyl)benzyl]-1,3-thiazole-5-carboxamide]
110 nM | C[C@@H]1CCCN(C2CCN(c3ncc(C(=O)NCc4ncccc4F)s3)CC2)C1 [Example 20, N-[(3-Fluoropyridin-2-yl)methyl]-2-[(3R)-3-methyl[1,4′-bipiperidin]-1′-yl]-1,3-thiazole-5-carboxamide]
7.2 nM | C[C@@H]1CCCN(C2CCN(c3ncc(C(=O)NCc4cc(Cl)ccc4F)s3)CC2)C1 [Example 21, N-(5-Chloro-2-fluorobenzyl)-2-[(3R)-3-methyl[1,4′-bipiperidin]-1′-yl]-1,3-thiazole-5-carboxamide]
640 nM | C[C@@H]1CCCN(C2CCN(c3ncc(C(=O)NCc4ccc(C(F)(F)F)cc4)s3)CC2)C1 [Example 22, 2-[(3R)-3-Methyl[1,4′-bipiperidin]-1′-yl]-N-[4-(trifluoromethyl)benzyl]-1,3-thiazole-5-carboxamide]
17 nM | C[C@@H]1CCCN(C2CCN(c3ncc(C(=O)NCc4ncc(Cl)cc4F)s3)CC2)C1 [Example 23, N-[(5-chloro-3-fluoropyridin-2-yl)methyl]-2-[(3R)-3-methyl[1,4′-bipiperidin]-1′-yl]-1,3-thiazole-5-carboxamide]
1060 nM | Cc1cccnc1CNC(=O)c1cnc(N2CCC(N3CCC[C@@H](C)C3)CC2)s1 [Example 24, 2-[(3R)-3-methyl[1,4′-bipiperidin]-1′-yl]-N-[(3-methylpyridin-2-yl)methyl]-1,3-thiazole-5-carboxamide]
2400 nM | Cc1ccnc(CNC(=O)c2cnc(N3CCC(N4CCC[C@@H](C)C4)CC3)s2)c1 [Example 25, 2-[(3R)-3-methyl[1,4′-bipiperidin]-1′-yl]-N-[(4-methylpyridin-2-yl)methyl]-1,3-thiazole-5-carboxamide]
280 nM | C[C@@H]1CCCN(C2CCN(c3ncc(C(=O)NCc4ncccc4Cl)s3)CC2)C1 [Example 26, N-[(3-chloropyridin-2-yl)methyl]-2-[(3R)-3-methyl[1,4′-bipiperidin]-1′-yl]-1,3-thiazole-5-carboxamide]
310 nM | C[C@@H]1CCCN(C2CCN(c3ncc(C(=O)N(C)Cc4ncccc4F)s3)CC2)C1 [Example 27, N-[(3-fluoropyridin-2-yl)methyl]-N-methyl-2-[(3R)-3-methyl[1,4′-bipiperidin]-1′-yl]-1,3-thiazole-5-carboxamide]
890 nM | C[C@@H]1CCCN(C2CCN(c3ncc(C(=O)NCc4cccc(C(F)(F)F)n4)s3)CC2)C1 [Example 28, 2-[(3R)-3-methyl[1,4′-bipiperidin]-1′-yl]-N-{[6-(trifluoromethyl)pyridin-2-yl]methyl}-1,3-thiazole-5-carboxamide]
96 nM | C[C@@H]1CCCN(C2CCN(c3ncc(C(=O)NCc4ccc(Cl)cn4)s3)CC2)C1 [Example 29, N-[(5-chloropyridin-2-yl)methyl]-2-[(3R)-3-methyl[1,4′-bipiperidin]-1′-yl]-1,3-thiazole-5-carboxamide]

IC50 | SMILES
89 nM | C[C@@H]1CCCN(C2CCN(c3ncc(C(=O)NCc4ncc(F)cc4Cl)s3)CC2)C1 [Example 31, N-[(3-chloro-5-fluoropyridin-2-yl)methyl]-2-[(3R)-3-methyl[1,4′-bipiperidin]-1′-yl]-1,3-thiazole-5-carboxamide]
640 nM | C[C@@H]1CCCN(C2CCN(c3ncc(C(=O)NCc4cccc(OC(F)(F)F)n4)s3)CC2)C1 [Example 32, 2-[(3R)-3-methyl[1,4′-bipiperidin]-1′-yl]-N-{[6-(trifluoromethoxy)pyridin-2-yl]methyl}-1,3-thiazole-5-carboxamide]
15 nM | C[C@@H]1CCCN(C2CCN(c3ncc(C(=O)NCc4ccc(Cl)cc4)s3)CC2)C1 [Example 33, N-(4-chlorobenzyl)-2-[(3R)-3-methyl[1,4′-bipiperidin]-1′-yl]-1,3-thiazole-5-carboxamide]
640 nM | C[C@@H]1CCCN(C2CCN(c3ncc(C(=O)NCc4cc(F)ccc4Cl)s3)CC2)C1 [Example 34, N-(2-chloro-5-fluorobenzyl)-2-[(3R)-3-methyl[1,4′-bipiperidin]-1′-yl]-1,3-thiazole-5-carboxamide]
1000 nM | Cc1ccc(CNC(=O)c2cnc(N3CCC(N4CCC[C@@H](C)C4)CC3)s2)cc1 [Example 35, N-(4-methylbenzyl)-2-[(3R)-3-methyl[1,4′-bipiperidin]-1′-yl]-1,3-thiazole-5-carboxamide]
190 nM | Cc1cccc(CNC(=O)c2cnc(N3CCC(N4CCC[C@@H](C)C4)CC3)s2)c1 [Example 36, N-(3-methylbenzyl)-2-[(3R)-3-methyl[1,4′-bipiperidin]-1′-yl]-1,3-thiazole-5-carboxamide]
200 nM | Cc1ccccc1CNC(=O)c1cnc(N2CCC(N3CCC[C@@H](C)C3)CC2)s1 [Example 37, N-(2-methylbenzyl)-2-[(3R)-3-methyl[1,4′-bipiperidin]-1′-yl]-1,3-thiazole-5-carboxamide]
2340 nM | O=C(NCc1ncc(F)cc1F)c1cnc(N2CCC(N3CCC[C@H](C(F)F)C3)CC2)s1 [Example 38, 2-[(3S)-3-(Difluoromethyl)[1,4′-bipiperidin]-1′-yl]-N-[(3,5-difluoropyridin-2-yl)methyl]-1,3-thiazole-5-carboxamide]
135 nM | O=C(NCc1ncc(F)cc1F)c1cnc(N2CCC(N3CCC[C@@H](C(F)F)C3)CC2)s1 [Example 39, 2-[(3R)-3-(Difluoromethyl)[1,4′-bipiperidin]-1′-yl]-N-[(3,5-difluoropyridin-2-yl)methyl]-1,3-thiazole-5-carboxamide]
243 nM | O=C(NCc1ncc(F)cc1F)c1cnc(N2CCC(N3CCC[C@@H](CF)C3)CC2)s1 [Example 41, N-[(3,5-Difluoropyridin-2-yl)methyl]-2-[(3R)-3-(fluoromethyl)[1,4′-bipiperidin]-1′-yl]-1,3-thiazole-5-carboxamide]
26 nM | O=C(NCc1ncc(F)cc1F)c1cnc(N2CCC(N3CCC[C@@H](C(F)(F)F)C3)CC2)s1 [Example 43, N-[(3,5-Difluoropyridin-2-yl)methyl]-2-[(3R)-3-(trifluoromethyl)[1,4′-bipiperidin]-1′-yl]-1,3-thiazole-5-carboxamide]
41.2 nM | O=C(NCc1ncc(F)cc1F)c1cnc(N2CCC(N3CCC[C@@H](OCC4CC(F)(F)C4)C3)CC2)s1 [Example 44, 2-{(3R)-3-[(3,3-Difluorocyclobutyl)methoxy][1,4′-bipiperidin]-1′-yl}-N-[(3,5-difluoropyridin-2-yl)methyl]-1,3-thiazole-5-carboxamide]
56 nM | C[C@@H]1CCCN(C2CCN(c3noc(C(=O)NCc4ncc(F)cc4F)n3)CC2)C1 [Example 49, N-[(3,5-Difluoropyridin-2-yl)methyl]-3-[(3R)-3-methyl[1,4′-bipiperidin]-1′-yl]-1,2,4-oxadiazole-5-carboxamide]
240 nM | C[C@@H]1CCCN(C2CCN(c3ncc(C(=O)NCc4ncc(Cl)s4)s3)CC2)C1 [Example 56, N-[(5-Chloro-1,3-thiazol-2-yl)methyl]-2-[(3R)-3-methyl[1,4′-bipiperidin]-1′-yl]-1,3-thiazole-5-carboxamide]
830 nM | C[C@@H]1CCCN(C2CCN(c3ncc(C(=O)NCc4ccc(F)s4)s3)CC2)C1 [Example 57, N-[(5-Fluoro-2-thienyl)methyl]-2-[(3R)-3-methyl[1,4′-bipiperidin]-1′-yl]-1,3-thiazole-5-carboxamide]
870 nM | C[C@@H]1CCCN(C2CCN(c3ncc(C(=O)NCc4ccncc4)s3)CC2)C1 [Example 58, 2-[(3R)-3-Methyl[1,4′-bipiperidin]-1′-yl]-N-(pyridin-4-ylmethyl)-1,3-thiazole-5-carboxamide]
